Data as given in PubChem BioAssay AID1053192 (Broad Institute, 2014).
Results filed as inconclusive are left out. Calls of active or inactive are those of the source.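 The calls were made as follows: active = cytotoxic compounds whose falling curve has a midpoint dose at most twice the top valid dose; inconclusive = flat fit losing 30 to 70% signal, or poor fit; inactive = the rest.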

system: not listed separately; assay: HepG2 cell cytotoxicity, dose response, cytotoxicity control, CellTiter-Glo luminescence, 72 h, dry powder (AID 1053192); settings: HepG2 viability, CellTiter-Glo ATP luminescence, 72 h; at 50 µM (top of the series)

| SMILES | activity change, negative = cytotoxicity |
| --- | --- |
| Cc1cc2cc(CNC(=O)Nc3ccc(Cl)c(Cl)c3)ccc2n1C | -3.46% (inactive) |
| Cc1ccc(S(=O)(=O)NCc2ccc3c(c2)cc(C)n3C)cc1 | -22.2% (inactive) |
| O=C(c1c(F)cccc1F)N(Cc1ccccc1)Cc1ccccc1 | -4.81% (inactive) |
| COc1ccc(Nc2ccccc2N)cc1 | 4.91% (inactive) |
| Cc1cc(C)c(S(=O)(=O)NCCn2c(C)cc3ccccc32)c(C)c1 | 18.2% (inactive) |
| CCc1cccc2c1NC1(CCCC1)CC2C (configuration not stated) | -13.5% (inactive) |
| Cc1cc2ccccc2n1CCNC(=O)COc1ccc2ccccc2c1 | 21.7% (inactive) |
| Cc1ccc(CSc2nc3[nH]ncc3c(=O)[nH]2)cc1 | -34.4% (inactive) |
| Cc1cccc(NC(=O)NCc2ccc3c(c2)cc(C)n3C)c1 | -2.27% (inactive) |
| CNc1ccccc1C(C)(C)c1cc(-c2cccc(OC)c2)no1 | -1.6% (inactive) |
| O=C(O)C1CCN(c2nc(-c3ccccc3)c3cc(Br)ccc3n2)CC1 | 1.7% (inactive) |

system: HepG2 viability, CellTiter-Glo ATP luminescence, 72 h; assay: as above; settings: not given

| SMILES | AC50 |
| --- | --- |
| OCc1ccc(-c2nn(Cc3ccccc3)c3ccccc23)o1 | 8.07 µM |
